{"source": "patent US20150141274A1", "about": "“Methods and Compositions for Activity Dependent Transcriptome Profiling” (The Rockefeller University, priority 2012, published 2015)", "key": {"pS6 and c-fos": {"system": "pS6 and c-fos", "type": "in vivo, mouse", "conditions": "intraperitoneal: cocaine 30 mg/kg 60 min, kainate 12.5 mg/kg 120 min, haloperidol 2 mg/kg 30 min, olanzapine 20 mg/kg 120 min, clozapine 10 mg/kg 45 min; ghrelin", "procedure": "(§1) Wild-type male C57B6/J mice from Jackson laboratories were maintained on a 8 pm:8 am light-dark schedule and were 9-13 weeks old at the time of sacrifice. All dissections were performed between noon and 2 pm except as noted. For osmotic stimulation experiments, animals were given an intraperitoneal injection of 2M NaCl (350 μL), water was removed from the cage, and mice were sacrificed 120-140 min later. For fasting experiments, animals were transferred to a new cage without food at 5 pm and then sacrificed at 8 am the following morning. Control mice were fed ad libitum and sacrificed at the same time. For ghrelin experiments, animals were given an intraperitoneal injection of ghrelin (66 μg, Tocris), food was removed from the cage, and animals were dissected 70 min later. For scheduled feeding, animals were allowed access to food between noon and 3 pm each day, and then sacrificed between 1:45 and 2 pm after a minimum of 10 days on this schedule."}, "K-opioid receptor (KOR)": {"target": "T1, K-opioid receptor (KOR) (Mus musculus, UniProt P33534)", "T1 construct": "An intraperitoneal injection of either a selective KOR antagonist (JDTic) or vehicle was administered to mice; from tissue; host or cells: whole animal (wild-type male C57B6/J mice), i.p. or intracerebroventricular dosing", "T1 sequence (P33534 whole entry)": "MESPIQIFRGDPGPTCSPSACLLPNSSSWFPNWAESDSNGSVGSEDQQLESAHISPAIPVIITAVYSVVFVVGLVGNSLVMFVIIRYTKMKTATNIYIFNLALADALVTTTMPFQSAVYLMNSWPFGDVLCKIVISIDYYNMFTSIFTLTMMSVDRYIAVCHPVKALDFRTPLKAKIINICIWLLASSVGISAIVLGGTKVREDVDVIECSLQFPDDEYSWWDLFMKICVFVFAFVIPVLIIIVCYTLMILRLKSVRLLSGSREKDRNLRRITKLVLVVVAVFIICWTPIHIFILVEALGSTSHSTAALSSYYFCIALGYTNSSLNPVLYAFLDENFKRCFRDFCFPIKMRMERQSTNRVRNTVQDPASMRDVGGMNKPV", "test": "Food intake and body weight after treatment with KOR antagonists during scheduled or ad libitum feeding", "type": "in vivo", "procedure": "as §1\nJDTic was either delivered by intraperitoneal injection (10 mg/kg) or was reconstituted in PBS to a concentration of 1 mg/mL and 5 ul was delivered via Hamilton syringe into the lateral ventricle using coordinates: L/M 1.0 mm from Bregma, A/P −0.4 mm from Bregma and 2.5 mm beneath the cortex. Norbinaltorphimine was delivered at the same dose and coordinates as described above."}, "pS6": {"system": "pS6", "test": "Hypothalamic immunostaining for pS6", "type": "in vivo, mouse", "procedure": "as §1, with “For fasting experiments, animals were transferred to a new cage without food at 5 pm and then sacrificed at 8 am the following morning.” left out\nMice were sacrified at the indicated times by isoflurane anesthesia followed by transcardial perfusion with PBS and then 10% formalin. Brains were dissected, incubated in 10% formalin overnight at 4° C., and 40 μm sections were prepared on a vibratome. Free floating sections were blocked for 1 h at room temperature in buffer E (PBS, 0.1% Triton, 2% goat serum, 3% BSA), and then stained overnight at 4° C. with primary antibodies at the indicated concentrations. For pS6 244 staining, the pS6 240/244 polyclonal antibody (Cell Signaling, #2215) was combined with the 3P peptide (250 nM final concentration). […]\nImages were acquired using an LSM510 laser scanning confocal microscope. pS6 was quantified in specific neuronal populations as follows. […] The surfaces corresponding to each labelled cell in the field (e.g. each POMC cell) were reconstructed using Imaris software (Bitplane), and the mean intensity in the pS6 channel within the volume bounded by the surface of each labelled cell was recorded. […] In cases where the absolute number of pS6 positive cells within an anatomic region was desired (e.g. Pdyn neurons in the DMH), the number of pS6 positive and negative cells was counted manually."}, "hypothalamus [1]": {"system": "hypothalamus", "test": "Phosphorylated ribosome profiling (Taqman array) of hypothalamus after salt challenge", "type": "in vivo, mouse", "conditions": "2M NaCl 350 μL intraperitoneal, 120-140 min; 3P peptide", "procedure": "(§2) Mice were sacrificed by cervical dislocation. […] Homogenates were transferred to a microcentrifuge tube and clarified at 2000×g for 10 min at 4° C. […] This solution was mixed and then clarified at 17000×g for 10 min at 4° C. The resulting high-speed supernatant was transferred to a new tube, and 20 μL of a 0.05 mM stock solution of 3P peptide was added. A 20 μL aliquot of this solution was removed, transferred to a new tube containing 350 μL buffer RLT (Qiagen), and stored at −80° C. for purification as input RNA. The remainder was used for immunoprecipitation.\n(§3) Immunoprecipitations were allowed to proceed 10 min at 4° C. […] During the third wash the beads were transferred to a new tube and allowed to incubate at RT for 10 min. […] RNA assessed using an Agilent 2100 bioanalyzer.\nas §1, with “For fasting experiments, animals were transferred to a new cage without food at 5 pm and then sacrificed at 8 am the following morning.” left out\n(§4) Taqman probes were designed and ordered for quantification of each of the 225 genes described in Table 4. Probes were distributed to 96-well plates in duplicate, cDNA was prepared using the Quantitect RT kit (Qiagen), and reactions were run using the Taqman Gene Expression Master Mix (ABI) on an Applied Biosystems 7900HT system. For each experiment (stimulus or control), the abundance of each gene in the input RNA and in the pS6 immunoprecipitated RNA was measured in duplicate. The mean RNA abundance was determined, normalized to an rpL27 probe that was present in every plate, and the ratio (IP/Input) was calculated. The experiment was repeated multiple times for each stimulus or control, these values were averaged, and the differential enrichment was calculated (ratio of (IP/Input) stimulus over control). Note that the differential enrichment was calculated because the neuronal markers that become enriched or depleted specifically in response to the stimulus was of interest. Normalization to the control group accounts for the fact that each neural marker has a somewhat different enrichment at baseline, reflecting the fact that each cell-population has somewhat different level of basal pS6. Follow-up analysis focused in every case on the most highly enriched genes in the experiment, which were validated directly by histology."}, "hypothalamus [2]": {"system": "hypothalamus", "conditions": "2 M NaCl 15 μL/g intraperitoneal, 2 hours; pS6 240/244 antibody without 3P peptide", "quoted_text": "Magnetic beads were loaded by incubating 150 μL of Protein A Dynabeads (Invitrogen) with 4 μg of pS6 antibody in Buffer A (10 mM HEPES [pH 7.4], 150 mM KCl, 5 mM MgCl2, 1% NP40, 0.05% IgG-free BSA). Loading was allowed to proceed at 4° C. for a minimum of 1 day. Beads were washed three times with Buffer A immediately before use.\nMice were sacrificed by cervical dislocation. The hypothalamus was rapidly dissected in Buffer B on ice (1×HBSS, 4 mM NaHCO3, 2.5 mM HEPES [pH 7.4], 35 mM Glucose, 100 μg/mL cycloheximide). […] Samples were homogenized three times at 250 rpm and nine times at 750 rpm on a variable-speed homogenizer (Glas-Col) at 4° C. Homogenates were transferred to a microcentrifuge tube and clarified for 10 minutes at 4000 rpm at 4° C. The supernatant was then removed and transferred to a new tube on ice. […]\nImmunoprecipitations were allowed to proceed for 30-60 min at 4° C. […] RNA quality was quantified using a NanoDrop spectrophotometer and the quality assessed using an Agilent 2100 bioanalyzer. […] For Taqman analysis, cDNA was prepared using the Sensiscript RT kit (Qiagen) and analyzed using an Applied Biosystems 7900HT system. […]\nThe ratio of the signal intensities for each gene in the IP (immunoprecipitation) and input was calculated for each experiment, these values were averaged across replicates, and all genes were sorted according to their fold-enrichment."}, "hypothalamus [3]": {"system": "hypothalamus", "test": "Phosphorylated ribosome profiling (Taqman array) of hypothalamus after ghrelin injection", "type": "in vivo, mouse", "conditions": "ghrelin 66 μg intraperitoneal, 70 min", "procedure": "as §2, §3\nWild-type male C57B6/J mice from Jackson laboratories were maintained on a 8 pm:8 am light-dark schedule and were 9-13 weeks old at the time of sacrifice. All dissections were performed between noon and 2 pm except as noted. […]\nas §4, with “Normalization to the control group accounts for the fact that each neural marker has a somewhat different enrichment at baseline, reflecting the fact that each cell-population has somewhat different level of basal pS6. Follow-up analysis focused in every case on the most highly enriched genes in the experiment, which were validated directly by histology.” left out"}, "[4]": {"target": "phosphorylated ribosomal protein S6 (mouse), in ribosomes of cell lysates (Mus musculus) (UniProt P62754)", "test": "immunoprecipitation of ribosomes from MEF lysates, recovered RNA quantified by Bioanalyzer"}, "[5]": {"target": "phosphorylated ribosomal protein S6 (mouse), in ribosomes of cell lysates (Mus musculus) (UniProt P62754)", "test": "immunoprecipitation of ribosomes from MEF lysates, recovered RNA quantified"}, "[6]": {"conditions": "ad libitum fed animals, intraperitoneal injection"}, "[7]": {"conditions": "scheduled feeding, intraperitoneal injection 10 mg/kg, single dose"}}, "note": "No end group written: not given here."}
{"compound": "O=C(CCCN1CCC(O)(c2ccc(Cl)cc2)CC1)c1ccc(F)cc1", "note": "[haloperidol]", "values": [{"measurement": "co-localization of pS6 and c-fos in brain regions", "setting": "pS6 and c-fos", "result": "induce co-localization of pS6 and c-fos"}]}
{"compound": "C=C(C)[C@H]1CN[C@H](C(=O)O)[C@H]1CC(=O)O", "note": "[kainate]", "values": [{"measurement": "co-localization of pS6 and c-fos in brain regions", "setting": "pS6 and c-fos", "result": "induce co-localization of pS6 and c-fos"}]}
{"compound": "Oc1ccc2c3c1O[C@H]1c4[nH]c5c(c4C[C@@]4(O)[C@@H](C2)N(CC2CC2)CC[C@]314)C[C@@]1(O)[C@H]2Cc3ccc(O)c4c3[C@@]1(CCN2CC1CC1)[C@H]5O4", "note": "[norbinaltorphimine]", "values": [{"measurement": "increase in food intake", "setting": "K-opioid receptor (KOR); scheduled feeding, intracerebroventricular injection", "result": "more than 50%"}]}
{"compound": "[Cl-].[Na+]", "note": "[salt, NaCl]", "values": [{"measurement": "pS6 staining in PVN, SON and median eminence of the hypothalamus", "setting": "pS6; salt challenge, 2M NaCl versus vehicle (PBS), pS6 244 staining", "result": "induced an increase in pS6"}, {"measurement": "enrichment of Cxcl1 in pS6 immunoprecipitates, salt challenged relative to controls", "setting": "hypothalamus [1]", "result": 13, "unit": "fold"}, {"measurement": "enrichment of Fezf2 in pS6 immunoprecipitates, salt challenged relative to controls", "setting": "hypothalamus [1]", "result": 5.5, "unit": "fold"}, {"measurement": "enrichment of FosB in pS6 immunoprecipitates, salt challenged relative to controls", "setting": "hypothalamus [1]", "result": 38, "unit": "fold"}, {"measurement": "enrichment of Nhlh2 in pS6 immunoprecipitates, salt challenged relative to controls", "setting": "hypothalamus [1]", "result": 7.3, "unit": "fold"}, {"measurement": "enrichment of Sim1 in pS6 immunoprecipitates, salt challenged relative to controls", "setting": "hypothalamus [1]", "result": 4.0, "unit": "fold"}, {"measurement": "enrichment of corticotropin releasing hormone (Crh) in pS6 immunoprecipitates, salt challenged relative to controls", "setting": "hypothalamus [1]", "result": 10, "unit": "fold"}, {"measurement": "enrichment of galanin (Gal) in pS6 immunoprecipitates, salt challenged relative to controls", "setting": "hypothalamus [1]", "result": 4.6, "unit": "fold"}, {"measurement": "enrichment of oxytocin (Oxt) in pS6 immunoprecipitates, salt challenged relative to controls", "setting": "hypothalamus [1]", "result": 14, "unit": "fold"}, {"measurement": "enrichment of prodynorphin (Pdyn) in pS6 immunoprecipitates, salt challenged relative to controls", "setting": "hypothalamus [1]", "result": 3.4, "unit": "fold"}, {"measurement": "enrichment of relaxin-1 (Rln1) in pS6 immunoprecipitates, salt challenged relative to controls", "setting": "hypothalamus [1]", "result": 6.1, "unit": "fold"}, {"measurement": "enrichment of somatostatin (Sst) in pS6 immunoprecipitates, salt challenged relative to controls", "setting": "hypothalamus [1]", "result": 3.1, "unit": "fold"}, {"measurement": "enrichment of urocortin-3 (Ucn3) in pS6 immunoprecipitates, salt challenged relative to controls", "setting": "hypothalamus [1]", "result": 5.3, "unit": "fold"}, {"measurement": "enrichment of vasopressin (Avp) in pS6 immunoprecipitates, salt challenged relative to controls", "setting": "hypothalamus [1]", "result": 49, "unit": "fold"}, {"measurement": "enrichment of Avp in pS6 IPs from salt challenged animals relative to controls, by Taqman", "setting": "hypothalamus [2]", "result": 7.9, "unit": "fold"}]}
{"compound": "JDTic", "values": [{"measurement": "body weight", "setting": "K-opioid receptor (KOR); [6]", "result": "no impact"}, {"measurement": "food intake", "setting": "K-opioid receptor (KOR); [6]", "result": "no impact"}, {"measurement": "body weight relative to the control group", "setting": "K-opioid receptor (KOR); [7]", "result": "more rapid regain"}, {"measurement": "food intake relative to the control group", "setting": "K-opioid receptor (KOR); [7]", "result": "increased more rapidly"}]}
{"compound": "ghrelin (GSSFLSPEHQRVQQRKESKKPPAKLQPR; not fully specified (residue 3); ends and bridges not checked; UniProt Q9UBU3 24-51, looked up) [the hormone ghrelin (Tocris)]", "values": [{"measurement": "co-localization of pS6 and c-fos in brain regions", "setting": "pS6 and c-fos", "result": "extensive co-localization of c-fos and pS6"}, {"measurement": "pS6 levels in the compact part of the DMH", "setting": "pS6; ghrelin IP injection, 1 h", "result": "did not increase"}, {"measurement": "pS6 staining in the Arc", "setting": "pS6; ghrelin IP injection, 1 h", "result": "induced strong pS6"}, {"measurement": "enrichment of AgRP in pS6 immunoprecipitates relative to controls", "setting": "hypothalamus [3]", "result": 27, "unit": "fold"}, {"measurement": "enrichment of NPY in pS6 immunoprecipitates relative to controls", "setting": "hypothalamus [3]", "result": 21, "unit": "fold"}, {"measurement": "enrichment of the ghrelin receptor in pS6 immunoprecipitates relative to controls", "setting": "hypothalamus [3]", "result": 7.1, "unit": "fold"}]}
{"compound": "rabbit anti-pS6 240/244 polyclonal antibody (Cell Signaling #2215)", "values": [{"measurement": "fold more RNA isolated in immunoprecipitate, wild-type MEFs against S6^S5A controls", "setting": "[4]", "result": 100, "unit": "fold"}, {"measurement": "fold more RNA associated with immunoprecipitate, wild-type MEFs against S6S5A cells", "setting": "[5]", "result": 100, "unit": "fold"}]}
